Laboratory results as given in ChEMBL document CHEMBL5726069, “1-(3-aminopropyl) substituted cyclic amine compounds, preparation method therefor, and pharmaceutical compositions and uses thereof” (2019).

molecular target: C-C chemokine receptor type 5 (Homo sapiens, UniProt P51681); experiment: Calcium Flux Inhibition Experiment: 1. HEK293 cells which can stably express CCR5 were inoculated in a 96-well plate and incubated overnight.2. The medium in each well into which cells were innoculated was removed and 40 μl/well of freshly prepared dye was added. The plate was placed in a 37° C. incubator and incubated for 40 minutes at constant temperature.3. The medicament to be determined was diluted with calcium buffer to eight concentration gradients, which is 1×10−4 M, 1×10−5 M, 1×10−6 M, 1×10−7 M, 1×10−8 M, 1×10−9 M, 1×10−10 M, and 1×10−11 M, respectively, and homogeneously mixed.4. The dye was removed. Freshly prepared calcium buffer was used to wash for one time, 50 μl of calcium buffer was added.5. FlexStation II was used for detection. 25 μl of calcium buffer containing the medicament to be determined was added automatically from the 15th second. The fluorescence value at 525 nm was read ultimately.; format: cell-based
Sequence (P51681 whole entry): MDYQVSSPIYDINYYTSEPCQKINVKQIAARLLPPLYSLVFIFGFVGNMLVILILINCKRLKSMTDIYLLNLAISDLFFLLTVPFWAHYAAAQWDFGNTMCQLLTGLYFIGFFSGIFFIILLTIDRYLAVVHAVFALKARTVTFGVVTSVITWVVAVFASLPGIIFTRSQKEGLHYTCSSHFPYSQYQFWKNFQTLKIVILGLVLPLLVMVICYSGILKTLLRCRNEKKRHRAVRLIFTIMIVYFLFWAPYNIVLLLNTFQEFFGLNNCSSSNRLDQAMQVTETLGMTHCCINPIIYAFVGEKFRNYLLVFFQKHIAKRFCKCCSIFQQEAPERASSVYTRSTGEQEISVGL

Structure (SMILES) | IC50 [nM]
Cc1nnc(C(C)C)n1C1CC2CCC(C1)N2CC[C@H](NC(=O)C1CCC(F)(F)CC1)c1nccs1 (stereo partly drawn) | 10.3
CC(=O)Nc1ccc([C@H](CCN2C3CCC2CC(n2c(C)nnc2C(C)C)C3)NC(=O)C2CCC(F)(F)CC2)s1 (stereo partly drawn) | 8.23
CCc1ccc([C@H](CCN2C3CCC2CC(n2c(C)nnc2C(C)C)C3)NC(=O)C2CCC(F)(F)CC2)s1 (stereo partly drawn) | 4.63
Cc1nnc(C(C)C)n1C1CC2CCC(C1)N2CC[C@H](NC(=O)C1CCC(F)(F)CC1)c1csc2ccccc12 (stereo partly drawn) | 11.4
Cc1nnc(C(C)C)n1C1CC2CCC(C1)N2CC[C@H](NC(=O)C1CCC(F)(F)CC1)c1ccc(C#N)s1 (stereo partly drawn) | 9.45
Cc1nnc(C(C)C)n1C1CC2CCC(C1)N2CC[C@H](NC(=O)C1CCC(F)(F)CC1)c1ccc(Cl)s1 (stereo partly drawn) | 10.4
Cc1nnc(C(C)C)n1C1CC2CCC(C1)N2CCC(NC(=O)C1CCC(F)(F)CC1)c1cccs1 (stereo not drawn) | 1.95
Cc1ccc([C@H](CCN2C3CCC2CC(n2c(C)nnc2C(C)C)C3)NC(=O)C2CCC(F)(F)CC2)s1 (stereo partly drawn) | 7.28
Cc1ccc([C@H](CCN2C3CCC2CC(n2c(C)nnc2C(C)C)C3)NC(=O)CC#N)s1 (stereo partly drawn) | 8.29
Cc1nnc(C(C)C)n1C1CC2CCC(C1)N2CC[C@H](NC(=O)C1CCCCC1)c1ccc(C(=O)N(C)C)s1 (stereo partly drawn) | 1.64
Cc1nnc(C(C)C)n1C1CC2CCC(C1)N2CC[C@H](NC(=O)C1CCC(F)(F)CC1)c1ccc(F)s1 (stereo partly drawn) | 9.33
CNC(=O)c1ccc([C@H](CCN2C3CCC2CC(n2c(C)nnc2C(C)C)C3)NC(=O)C2CCC(F)(F)CC2)s1 (stereo partly drawn) | 13.7
CC(=O)Oc1ccc([C@H](CCN2C3CCC2CC(n2c(C)nnc2C(C)C)C3)NC(=O)C2CCCCC2)s1 (stereo partly drawn) | 1.38
